According to patent publication US20160074421A1 (priority 2014, published 2016):

Key:
[1] = system: tight junction; design: species or system BALB/c mice; details: mouse, in vivo, iv
[2] = system: epithelial and endothelial tissues; details: in vivo
[3] = target: PTEN (Homo sapiens, UniProt P60484); type: biochemical
PTEN, sequence (P60484 whole entry): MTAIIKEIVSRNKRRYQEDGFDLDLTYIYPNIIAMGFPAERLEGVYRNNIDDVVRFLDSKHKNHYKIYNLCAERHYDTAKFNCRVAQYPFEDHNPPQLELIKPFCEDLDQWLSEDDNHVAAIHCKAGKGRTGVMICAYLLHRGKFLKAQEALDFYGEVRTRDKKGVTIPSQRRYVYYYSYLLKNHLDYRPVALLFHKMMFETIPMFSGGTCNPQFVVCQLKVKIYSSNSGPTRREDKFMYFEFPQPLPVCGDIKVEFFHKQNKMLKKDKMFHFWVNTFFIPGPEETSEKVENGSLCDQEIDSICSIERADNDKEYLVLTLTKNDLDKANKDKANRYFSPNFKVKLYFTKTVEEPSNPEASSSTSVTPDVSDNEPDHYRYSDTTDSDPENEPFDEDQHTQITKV

## 1-D-Myo-inositol 1,2,6-triphosphate [alpha trinositol]
[1]
  effect on tight junction disturbance: have a counterbalancing effect

## sodium salt of D-myo-inositol-1,2,6-trisphosphate
[2]
  progressive deterioration of the structure and function of anatomical structures in epithelial and endothelial tissues: prevented this deterioration
[2]; iv
  confirmation of the prevention of tissue deterioration: confirmed

## zinc ions
[3]
  activity of PTEN: inhibit the activity of PTEN
